From patent US20120003668A1, “HIGH RESOLUTION COMPLEX STRUCTURE AND ALLOSTERIC EFFECTS OF LOW MOLECULAR WEIGHT ACTIVATORS ON THE PROTEIN KINASE PDK1” (UNIVERSITAET DES SAARLANDES, priority 2008, published 2012)
“Also recorded” adds a separate entry of the source. Each block holds one molecule with its values, some of them ahead of it. Non-standard residues stand in square brackets, D forms with d. Residues, ends and D or L forms follow the SMILES beside them. *: point of attachment. Biotin = O=C1N[C@H]2[C@H](CS[C@H]2CCCCC(=O)*)N1; pT = C[C@@H](OP(=O)(O)O)[C@H](N)C(=O)O; pS = N[C@@H](COP(=O)(O)O)C(=O)O

B1: PDK1 CD (50-359) wt (enzyme)
chain: GPMDGTAAEPRPGAGSLQHAQPPPQPRKKRPEDFKFGKILGEGSFSTVVLARELATSREYAIKILEKRHIIKENKVPYVTRERDVMSRLDHPFFVKLYFTFQDDEKLYFGLSYAKNGELLKYIRKIGSFDETCTRFYTAEIVSALEYLHGKGIIHRDLKPENILLNEDMHIQITDFGTAKVLSPESKQARANSFVGTAQYVSPELLTEKSACKSSDLWALGCIIYQLVAGLPPFRAGNEYLIFQKIIKLEYDFPEKFFPKARDLVEKLLVLDATKRLGCEEMEGYGPLKAHPFFESVTWENLHQQTPPKLTA
notes: also called PDK1 50-359; PDK1 CD wt

Assays:
PDK1 CD wt = target: T1, PDK1 CD wt (Homo sapiens, UniProt O15530); assay: Surface plasmon resonance (BiaCore) on biotin-P-HM-S6K chip; type: binding; settings: estimated from response units at equilibrium; read-out: Kd of direct binding of PDK1 CD wt to immobilized peptide
T1 construct: PDK1 CD (50-359), wt (0.35 μM), PDK1 [Phe224Trp] or PDK1 [Thr226Trp] were injected onto the system; GST (N); made in house; host or cells: insect cells
T1 sequence (O15530 50-359): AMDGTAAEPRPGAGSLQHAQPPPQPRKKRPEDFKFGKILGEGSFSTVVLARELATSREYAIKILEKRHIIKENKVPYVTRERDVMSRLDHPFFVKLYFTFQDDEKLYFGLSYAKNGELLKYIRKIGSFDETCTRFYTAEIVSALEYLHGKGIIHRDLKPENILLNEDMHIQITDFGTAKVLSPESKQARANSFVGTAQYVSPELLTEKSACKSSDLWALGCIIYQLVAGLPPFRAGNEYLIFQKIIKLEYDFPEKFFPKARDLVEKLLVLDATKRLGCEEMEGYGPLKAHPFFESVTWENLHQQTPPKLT
Method: Surface Plasmon resonance (BiaCore) and alpha-screen interaction and displacement assays: Binding of GST-PDK1 to a P-HM-polypeptide derived from S6K1 shown in FIG. 6 was analysed by surface plasmon resonance on a BiaCore 3000 system using a streptavidin-coated Sensor chip (SA) and biotin-P-HM-polypeptide, as previously described (Biondi, R. M. et al., Embo. J. 20:4380-4390 (2001). The interaction of His-PDK1 with biotin-PIFtide and the displacement by compounds shown in FIG. 3 was performed using the alpha-screen Ni-Chelate kit (Perkin Elmer) on an Envision 2104 multilabel system (Perkin Elmer).
BiaCore analysis was performed as described previously (Biondi, R. M. et al., Embo. J. 19:979-988 (2000)). […] Since both mutants were performed on the same construct of PDK1, their mass should be very similar and therefore should also produce 600RU when all biotin-(P)HM-S6K polypeptides on the same chip are bound to the mutant PDK1 proteins. Unfortunately, when mutant PDK1 Phe224Trp and PDK1 Thr226Trp were analysed, the injection of the mutants at concentrations higher than 1.3 μM prompted unspecific effects, therefore making difficult the evaluation. […]

[1] = target: T2, PDK1 50-359 [Y288G;Q292A] (Homo sapiens, UniProt O15530, Q292A/Y288G); assay: Amide 1H/2H exchange and mass spectrometry
T2 sequence (O15530 with tags, fused parts or gaps Y288G/Q292A): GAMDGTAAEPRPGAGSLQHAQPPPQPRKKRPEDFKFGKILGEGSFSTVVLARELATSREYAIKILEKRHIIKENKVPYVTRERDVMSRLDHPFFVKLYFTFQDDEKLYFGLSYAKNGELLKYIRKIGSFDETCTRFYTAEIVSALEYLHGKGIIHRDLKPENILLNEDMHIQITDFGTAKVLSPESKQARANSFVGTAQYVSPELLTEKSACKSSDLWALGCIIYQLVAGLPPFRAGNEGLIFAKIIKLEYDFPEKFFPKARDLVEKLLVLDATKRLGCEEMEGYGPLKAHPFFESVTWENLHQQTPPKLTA
Method: For local exchange analysis, the labeled proteins were digested with pepsin and the resulting polypeptides analyzed by tandem mass-spectrometry (LC-MS/MS) for their incorporation of deuterium atoms. The graphics represent the number of deuterium atoms incorporated into each polypeptide upon the stated incubation time in deuterated water. […] Over time, amide hydrogen atoms exchanged for deuteriums and the molecular weight of the protein increased. We repeated the ^1H/^2H exchange experiments at four different incubation times: 1, 5, 15 and 45 minutes. […] In the presence of peptide or small compounds, protein and ligand solution were pre-incubated on ice for 50 min before the mixture was diluted into labeling buffer. After the exchange reaction, samples were loaded on a pepsin column for one minute for digestion into peptides and samples quenched at each time point. They were then subjected to liquid chromatography for separation and analyzed by tandem mass-spectrometry (LC-MS/MS) for their incorporation of deuterium atoms. The entire plumbing system was immersed in an ice bath. 61 polypeptides were identified with overlapping regions, covering 80% of PDK1 sequence. As it is not possible to predict the cleavage sites of pepsin in the PDK1 sequence, it was necessary to identify the peptides generated by pepsin digestion for local-exchange analysis.

[2] = target: T3, His-PDK1 50-556 / biotin-PIFtide interaction (Homo sapiens, UniProt O15530); assay: alpha-screen displacement of the His-PDK1 biotin-PIFtide interaction; type: binding
T3 sequence (O15530 50-556): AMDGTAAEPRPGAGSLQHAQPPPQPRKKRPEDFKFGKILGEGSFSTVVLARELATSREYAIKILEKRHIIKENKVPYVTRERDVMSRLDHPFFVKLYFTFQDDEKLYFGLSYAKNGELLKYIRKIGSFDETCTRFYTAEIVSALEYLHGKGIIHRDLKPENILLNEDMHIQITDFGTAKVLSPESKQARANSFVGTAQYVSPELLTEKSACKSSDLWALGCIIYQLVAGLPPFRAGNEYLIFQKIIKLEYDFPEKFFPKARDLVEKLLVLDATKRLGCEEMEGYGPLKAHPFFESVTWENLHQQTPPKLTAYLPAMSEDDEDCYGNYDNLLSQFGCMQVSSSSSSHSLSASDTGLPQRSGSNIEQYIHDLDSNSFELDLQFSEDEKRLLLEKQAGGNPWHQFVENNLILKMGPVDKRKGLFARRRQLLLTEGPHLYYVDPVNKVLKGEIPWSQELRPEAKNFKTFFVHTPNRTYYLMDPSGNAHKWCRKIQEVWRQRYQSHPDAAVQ
Method: To study if low molecular weight compounds displaced the interaction, the compounds were incubated with the mix and the displacement of the His-PDK1 biotin-PIFtide interaction measured as a decrease in light emission.

PDK1 catalytic domain = target: T4, PDK1 catalytic domain (Homo sapiens, UniProt O15530); assay: TNP-ATP fluorescence probing of the ATP binding site conformation; type: biochemical
T4 construct: The catalytic domain (CD) of PDK1 50-359 and its mutants
T4 sequence (O15530 50-359): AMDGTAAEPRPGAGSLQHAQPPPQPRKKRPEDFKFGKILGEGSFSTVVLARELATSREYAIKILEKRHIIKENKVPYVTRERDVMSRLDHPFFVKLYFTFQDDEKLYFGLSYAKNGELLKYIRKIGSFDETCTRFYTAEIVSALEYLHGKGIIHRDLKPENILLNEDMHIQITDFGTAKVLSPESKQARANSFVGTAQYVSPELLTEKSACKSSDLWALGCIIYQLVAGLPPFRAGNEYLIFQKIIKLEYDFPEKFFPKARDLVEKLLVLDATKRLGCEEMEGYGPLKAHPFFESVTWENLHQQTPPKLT
Description: Probing the conformation of the ATP binding site in PDK1: The activation of PDK1 by HM-polypeptides and small compounds is due to a change in the conformation of the enzyme. We probed the conformation of the ATP binding site in PDK1 by scanning the steady-state fluorescence of TNP-ATP/PDK1, in the presence or absence of P-HM-polypeptides, PIFtide, or small molecular weight compounds. Data were obtained in a Varian Cary Eclipse spectrofluorometer (excitation λ=479 nm; emission scanning, λ=500-600 nm; excitation slit=10 nm; emission slit=10 nm) at a rate of 200 nm/min, with 150 datapoints/100 nm scanning and 0.3 s averaging time. The incubation was performed at 20° C. in a buffer containing 50 mM Tris pH 7.5, 0.1 mM EDTA, 187 mM NaCl, 40 μM TNP-ATP, 15 μM PDK1 catalytic domain, 1 mM DTT and 1% DMSO. In the absence of PDK1, TNP-ATP produced approximately 1.5 arbitrary units (a.u.) of fluorescence, and the inclusion of PDK1 increased its fluorescence intensity to approximately 3.3 a.u. […] In preliminary tests, inclusion of 2.5 mM MgCl2 in the assay mix produced similar results. Data for each condition are the average of 3 scans.

biotin-PIFtide = target: T5, biotin-PIFtide (biotin (position not given)); assay: SPR (BiaCore), immobilised biotin-PIFtide
T5 construct: Biotinylated PIFtide
T5 peptide: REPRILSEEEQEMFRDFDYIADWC

[3] = target: biotin-P-HM-polypeptide derived from S6K1; assay: SPR (BiaCore 3000), biotin-P-HM-S6K on streptavidin chip, equilibrium responses
PIFtide = target: T6, PIFtide
T6 chain: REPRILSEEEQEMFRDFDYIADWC

[4] = target: biotin-P-HM-polypeptide derived from S6K1; assay: SPR (BiaCore 3000), biotin-P-HM-S6K on streptavidin chip
[5] = target: biotin-P-HM-polypeptide derived from S6K1; assay: SPR (BiaCore), immobilised biotin-P-HM-S6K
PDK1 CD (50-359) wt = target: B1; assay: SPR competition (BiaCore): PDK1 CD wt pre-incubated with PIFtide, then injected over immobilised biotin-P-HM-S6K; PIFtide displaces PDK1 from biotin-P-HM-S6K
[6] = target: T7, PDK1 CD (50-359) [Phe224Trp] (human, UniProt O15530 50-359); assay: SPR competition (BiaCore): PDK1 [Phe224Trp] pre-incubated with PIFtide, then injected over immobilised biotin-P-HM-S6K; PIFtide displaces PDK1 from biotin-P-HM-S6K
T7 construct: also called PDK1[Phe224Trp]; PDK1 Phe224Trp
T7 sequence: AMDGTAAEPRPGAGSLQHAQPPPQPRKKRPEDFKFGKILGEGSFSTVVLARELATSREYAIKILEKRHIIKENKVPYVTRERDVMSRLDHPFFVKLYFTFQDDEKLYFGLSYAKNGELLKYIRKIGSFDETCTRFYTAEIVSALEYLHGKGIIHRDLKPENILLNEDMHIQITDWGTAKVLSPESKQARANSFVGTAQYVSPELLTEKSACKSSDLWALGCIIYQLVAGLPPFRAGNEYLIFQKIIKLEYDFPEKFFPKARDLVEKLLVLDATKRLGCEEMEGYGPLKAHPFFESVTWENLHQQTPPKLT

[7] = target: T8, PDK1 CD (50-359) [Thr226Trp] (human, UniProt O15530 50-359); assay: SPR competition (BiaCore): PDK1 [Thr226Trp] pre-incubated with PIFtide, then injected over immobilised biotin-P-HM-S6K; PIFtide displaces PDK1 from biotin-P-HM-S6K
T8 construct: also called PDK1[Thr226Trp]; PDK1 Thr226Trp
T8 sequence: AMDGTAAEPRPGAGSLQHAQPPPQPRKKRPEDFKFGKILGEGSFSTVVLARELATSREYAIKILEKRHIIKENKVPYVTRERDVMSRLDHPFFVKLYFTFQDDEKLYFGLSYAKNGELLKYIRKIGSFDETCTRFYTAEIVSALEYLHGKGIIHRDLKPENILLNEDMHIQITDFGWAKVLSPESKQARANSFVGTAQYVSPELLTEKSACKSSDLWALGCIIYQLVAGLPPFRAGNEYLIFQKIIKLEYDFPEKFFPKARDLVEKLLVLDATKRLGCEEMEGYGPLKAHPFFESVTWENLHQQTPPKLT

Sequence of biotin-P-HM-polypeptide derived from S6K1 (peptide, as listed by the source limits assumed): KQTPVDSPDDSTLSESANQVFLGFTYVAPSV

Molecule: CC(C)C[C@H](NC(=O)[C@H](Cc1ccccc1)NC(=O)[C@@H](NC(=O)[C@H](CCC(N)=O)NC(=O)[C@H](CC(N)=O)NC(=O)[C@H](C)NC(=O)[C@H](CO)NC(=O)[C@H](CCC(=O)O)NC(=O)[C@H](CO)NC(=O)[C@H](CC(C)C)NC(=O)[C@@H](NC(=O)[C@H](CO)NC(=O)[C@H](CC(=O)O)NC(=O)[C@H](CC(=O)O)NC(=O)[C@@H]1CCCN1C(=O)[C@H](COP(=O)(O)O)NC(=O)[C@H](CC(=O)O)NC(=O)[C@@H](NC(=O)[C@@H]1CCCN1C(=O)[C@@H](NC(=O)[C@H](CCC(N)=O)NC(=O)[C@H](CCCCN)NC(=O)CCCC[C@@H]1SC[C@@H]2NC(=O)N[C@@H]21)[C@@H](C)O)C(C)C)[C@@H](C)O)C(C)C)C(=O)NCC(=O)N[C@@H](Cc1ccccc1)C(=O)N[C@H](C(=O)N[C@@H](Cc1ccc(O)cc1)C(=O)N[C@H](C(=O)N[C@@H](C)C(=O)N1CCC[C@H]1C(=O)N[C@@H](CO)C(=O)N[C@H](C(=O)O)C(C)C)C(C)C)[C@@H](C)OP(=O)(O)O [biotin-P-HM-S6K] (Biotin-KQTPVD[pS]PDDSTLSESANQVFLGF[pT]YVAPSV-OH; N-terminus and C-terminus assumed)
Kd (PDK1 CD wt): 500 nM

decreased 2H incorporation, peptide 108-121 [1]: 1 ^2H | 2H less incorporated, peptide 108-134 ([1]; first time point): 4 ^2H | 2H less incorporated, peptide 218-247 ([1]; first time point): 1.5 ^2H | 2H less incorporated, peptide 108-134 ([1]; following time points): 2 ^2H | 2H less incorporated, peptide 146-155 ([1]; time points 15 and 45): 1 ^2H | displacement of the binding of PIFtide to PDK1 [2]: could be displaced | maximum fluorescence intensity of TNP-ATP/PDK1 (PDK1 catalytic domain; 167 μM compound, % of maximal TNP-ATP fluorescence with 15 μM PDK1 CD): 60%
Molecule: O=C(O)/C=C(/CCc1ccc(Br)cc1F)c1ccccc1 [PS08]
effect on TNP-ATP fluorescence intensity in the presence of PDK1 (PDK1 catalytic domain; 40 μM TNP-ATP, 15 μM PDK1 catalytic domain): concentration dependent decrease; also recorded: concentration-dependent decrease

Molecule: B1
percent of maximal binding of the wild type protein (biotin-PIFtide): ~50% | Kd [3]: 500 nM | PDK1 activity, T308tide as substrate (PIFtide): the wild type protein and PDK1[Phe224Trp] were activated by PIFtide | stated: activates; PDK1 activity (%) with T308tide as substrate (PIFtide): The bar without PIFtide is at 100 %. The two hatched PIFtide bars (labelled 2.5 and 40 µM) are both between 350 and 400 %, with little difference between them. | response units at maximum binding (PDK1 injected at 5.4 µM) [4]: 600 RU | percent of maximal binding of the wild type protein [5]: 50%

binding result (PDK1 CD (50-359) wt): binds | binding result [6]: binds | binding result [7]: binds
Molecule: REPRILSEEEQEMFRDFDYIADWC (also called HM-polypeptide PIFtide) [PIFtide]
